According to patent publication US9113629B2, “4-amino-6-(4-substituted-phenyl)-picolinates and 6-amino-2-(4-substituted-phenyl)-pyrimidine-4-carboxylates and their use as herbicides” (DOW AGROSCIENCES LLC, priority 2013, dated 2015):
Read-outs that look alike come from different tables or passages of the source.

Legend:
[1] = system: VIOSS: wild pansy (Viola tricolor), field violet (Viola arvensis); assay: Post-emergent Test III, herbicidal activity in wheat and barley; assay type: in vivo; conditions: for GR50 VIOSS: dose for 50 percent growth reduction; for GR50 VIOSS / GR80 VIOSS: probit analysis; for GR80 VIOSS: dose for 80 percent growth reduction; for pest or weed control at 35 g/ha / pest or weed control at 70 g/ha / pest or weed control at 140 g/ha: Viola tricolor, post-emergence, 504 h; for pest or weed control at 35 g/ha: 35 g ai/ha; for pest or weed control at 70 g/ha: 70 g ai/ha; for pest or weed control at 140 g/ha: 140 g ai/ha
Procedure, shortened: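 GR20, GR50, GR80 and GR90 come from probit analysis of visual injury scores (0 = none, 100 = complete kill) taken 21 d after treatment. Foliar application was by track sprayer delivering 187 L/ha at five rates, from high down to 1/16×, onto greenhouse plants at the 2–3 leaf stage, with solvent-blank controls.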

[2] = system: test plant species in Direct Seeded Rice; assay: Postemergence herbicidal activity in direct seeded rice (Table 13); assay type: in vivo; conditions: for GR50 BRAPP / GR80 BRAPP / GR50 CYPSS / GR80 CYPSS / GR50 ECHSS / GR80 ECHSS / GR50 LEFSS / GR80 LEFSS / GR20 ORYSS / GR50 SCPJU / GR80 SCPJU / GR50 SEBEX / GR80 SEBEX: probit analysis; for GR20 ORYSS: ORYSS: Oryza sativa (crop); for pest or weed control at 35 g/ha / pest or weed control at 70 g/ha: post-emergence, 504 h; for pest or weed control at 35 g/ha: 35 g ai/ha; for pest or weed control at 70 g/ha: 70 g ai/ha
Excerpt: Seeds or nutlets of the desired test plant species were planted in a soil matrix prepared by mixing a loam soil (43 percent silt, 19 percent clay, and 38 percent sand, with a pH of about 8.1 and an organic matter content of about 1.5 percent) and river sand in an 80 to 20 ratio. The soil matrix was contained in plastic pots with a surface area of 139.7 cm^2. When required to ensure good germination and healthy plants, a fungicide treatment and/or other chemical or physical treatment was applied. The plants were grown for 10-17 d in a greenhouse with an approximate 14-h photoperiod which was maintained at about 29° C. during the day and 26° C. during the night. Nutrients and water were added on a regular basis and supplemental lighting was provided with overhead metal halide 1000-Watt lamps as necessary. The plants were employed for testing when they reached the second or third true leaf stage. A weighed amount, determined by the highest rate to be tested, of each test compound was placed in 25 mL glass vials and dissolved in a volume of 97:3 v/v acetone-DMSO to obtain 12× stock solutions. […] The concentrated stock solutions were added to the spray solutions so that the final acetone and DMSO concentrations were 16.2% and 0.5%, respectively. Spray solutions were diluted to the appropriate final concentrations with the addition of 10 mL of an aqueous mixture of 1.5% (v/v) Agri-dex crop oil concentrate. […] Compound requirements are based upon a 12 mL application volume at a rate of 187 L/ha. Formulated compounds were applied to the plant material with an overhead Mandel track sprayer equipped with […] nozzles calibrated to deliver 187 L/ha over an application area of 0.503 square meters (m^2) at a spray height of 18 inches (43 cm) above average plant canopy height. Control plants were sprayed in the same manner with the solvent blank. The treated plants and control plants were placed in a greenhouse as described above and watered by sub-irrigation to prevent wash-off of the test compounds. After 20-22 days, the condition of the test plants, compared with that of the untreated plants, was determined visually and scored on a scale of 0 to 100 percent where 0 corresponds to no injury and 100 corresponds to complete kill. By applying the well-accepted probit analysis as described by J. Berkson in Journal of the American Statistical Society, 48, 565 (1953) and by D. Finney in “Probit Analysis” Cambridge University Press (1952), the above data can be used to calculate GR20, GR50, GR80 and GR90 values, which are defined as growth reduction factors that correspond to the effective dose of herbicide required to kill or control 20 percent, 50 percent, 80 percent or 90 percent, respectively, of a target plant.

[3] = Table 8, post-emergent, 21 d, read-out: Visual Growth Reduction (%) 21 Days After Application VIOSS
[4] = BRAPP: broadleaf signalgrass, Brachiaria platyphylla
[5] = CYPSS: sedge (Cyperus difformis, esculentus, iria)
[6] = ECHSS: barnyardgrass (Echinochloa crus-galli), junglerice (Echinochloa colonum)
[7] = LEFSS: sprangletop (Leptochloa chinensis, Leptochloa dubia)
[8] = SCPJU: Japanese bulrush, Scirpus juncoides
[9] = SEBEX: hemp sesbania, Sesbania exaltata
[10] = BRAPP: broadleaf signalgrass, Brachiaria platyphylla, read-out: Visual Growth Reduction (%) 21 Days After Application BRAPP
[11] = CYPSS: sedge (Cyperus difformis, esculentus, iria), read-out: Visual Growth Reduction (%) 21 Days After Application CYPSS
[12] = ECHSS: barnyardgrass (Echinochloa crus-galli), junglerice (Echinochloa colonum), read-out: Visual Growth Reduction (%) 21 Days After Application ECHSS
[13] = LEFSS: sprangletop (Leptochloa chinensis, Leptochloa dubia), read-out: Visual Growth Reduction (%) 21 Days After Application LEFSS
[14] = ORYSS: Oryza sativa, read-out: Visual Growth Reduction (%) 21 Days After Application ORYSS
[15] = SCPJU: Japanese bulrush, Scirpus juncoides, read-out: Visual Growth Reduction (%) 21 Days After Application SCPJU
[16] = SEBEX: hemp sesbania, Sesbania exaltata, read-out: Visual Growth Reduction (%) 21 Days After Application SEBEX
[17] = 21 days after application, read-out: Visual Gorowth Reduction (%) 21 days After Application VIOSS

`COC(=O)c1nc(-c2ccc(C#N)c(F)c2)c(F)c(N)c1Cl` [Compound 135, methyl 4-amino-3-chloro-6-(4-cyano-3-fluorophenyl)-5-fluoropicolinate] was tested, and the “GR50 VIOSS” value ([1]; Table 8, 21 d) was 23 g ai/ha, the “GR80 VIOSS” value ([1]; Table 8, 21 d) was greater than 140 g ai/ha and the pest or weed control at 35 g/ha [1, 3] was 60 to 74%. The pest or weed control at 70 g/ha [1, 3] was 60 to 74%, the pest or weed control at 140 g/ha [1, 3] was 75 to 84% and the “GR50 BRAPP” value [2, 4] was 4 g ai/ha. For the same compound, the “GR80 BRAPP” value [2, 4] was 11 g ai/ha, the “GR50 CYPSS” value [2, 5] was 5 g ai/ha and the “GR80 CYPSS” value [2, 5] was 49 g ai/ha. The “GR50 ECHSS” value [2, 6] was 17 g ai/ha, the “GR80 ECHSS” value [2, 6] was 70 g ai/ha and the “GR50 LEFSS” value [2, 7] was 57 g ai/ha. For the same compound, the “GR80 LEFSS” value [2, 7] was 114 g ai/ha, the “GR20 ORYSS” value [2] was greater than 70 g ai/ha and the “GR50 SCPJU” value [2, 8] was 2 g ai/ha. The “GR80 SCPJU” value [2, 8] was 5 g ai/ha, the “GR50 SEBEX” value [2, 9] was 1 g ai/ha and the “GR80 SEBEX” value [2, 9] was 1 g ai/ha. The pest or weed control at 35 g/ha [2, 10] was 85 to 94%, the pest or weed control at 70 g/ha [2, 10] was 85 to 94% and the pest or weed control at 35 g/ha [2, 11] was 75 to 84%. For the same compound, the pest or weed control at 70 g/ha [2, 11] was 85 to 94%, the pest or weed control at 35 g/ha [2, 12] was 75 to 84% and the pest or weed control at 70 g/ha [2, 12] was 75 to 84%. It also gave a pest or weed control at 35 g/ha [2, 13] of 0 to 29%, a pest or weed control at 70 g/ha [2, 13] of 60 to 74% and a pest or weed control at 35 g/ha [2, 14] of 0 to 29%. It also gave a pest or weed control at 70 g/ha [2, 14] of 0 to 29%, a pest or weed control at 35 g/ha [2, 15] of 85 to 94% and a pest or weed control at 70 g/ha [2, 15] of 95 to 100%. It also gave a pest or weed control at 35 g/ha [2, 16] of 95 to 100% and a pest or weed control at 70 g/ha [2, 16] of 95 to 100%.

With `Nc1cc(-c2ccc(I)cc2F)nc(C(=O)O)c1Cl` [Compound 124] the “GR50 VIOSS” value ([1]; Table 8, 21 d) was 24 g ai/ha, the “GR80 VIOSS” value ([1]; Table 8, 21 d) was 49 g ai/ha and the pest or weed control at 35 g/ha [1, 3] was 60 to 74%. The pest or weed control at 70 g/ha [1, 3] was 95 to 100%, the “GR50 BRAPP” value [2, 4] was 4 g ai/ha and the “GR80 BRAPP” value [2, 4] was 8 g ai/ha. For the same compound, the “GR50 CYPSS” value [2, 5] was 1 g ai/ha, the “GR80 CYPSS” value [2, 5] was 1 g ai/ha and the “GR50 ECHSS” value [2, 6] was 2 g ai/ha. For the same compound, the “GR80 ECHSS” value [2, 6] was 6 g ai/ha, the “GR50 LEFSS” value [2, 7] was 7 g ai/ha and the “GR80 LEFSS” value [2, 7] was 16 g ai/ha. The “GR20 ORYSS” value [2] was 1 g ai/ha, the “GR50 SCPJU” value [2, 8] was 1 g ai/ha and the “GR80 SCPJU” value [2, 8] was 1 g ai/ha. For the same compound, the “GR50 SEBEX” value [2, 9] was 1 g ai/ha, the “GR80 SEBEX” value [2, 9] was 1 g ai/ha and the pest or weed control at 35 g/ha [2, 10] was 95 to 100%. It also gave a pest or weed control at 70 g/ha [2, 10] of 95 to 100%, a pest or weed control at 35 g/ha [2, 11] of 95 to 100% and a pest or weed control at 70 g/ha [2, 11] of 95 to 100%. For the same compound, the pest or weed control at 35 g/ha [2, 12] was 95 to 100%, the pest or weed control at 70 g/ha [2, 12] was 95 to 100% and the pest or weed control at 35 g/ha [2, 13] was 95 to 100%. It also gave a pest or weed control at 70 g/ha [2, 13] of 95 to 100%, a pest or weed control at 35 g/ha [2, 14] of 60 to 74% and a pest or weed control at 70 g/ha [2, 14] of 85 to 94%. It also gave a pest or weed control at 35 g/ha [2, 15] of 95 to 100%, a pest or weed control at 70 g/ha [2, 15] of 95 to 100% and a pest or weed control at 35 g/ha [2, 16] of 95 to 100%. The pest or weed control at 70 g/ha [2, 16] was 95 to 100%.

In the case of `COC(=O)c1nc(-c2ccc(I)c(F)c2)c(C)c(N)c1Cl` [Compound 79, Methyl 4-amino-3-chloro-6-(3-fluoro-4-iodophenyl)-5-methylpicolinate], the “GR50 VIOSS” value ([1]; Table 8, 21 d) is reported as greater than 140 g ai/ha, the “GR80 VIOSS” value ([1]; Table 8, 21 d) is reported as greater than 140 g ai/ha and the pest or weed control at 35 g/ha [1, 3] is reported as 0 to 29%. It also gave a pest or weed control at 70 g/ha [1, 3] of 0 to 29%.

With `Nc1c(Cl)c(C(=O)O)nc(-c2ccc(I)c(F)c2)c1Cl` [Compound 145, 4-Amino-3,5-dichloro-6-(3-fluoro-4-iodophenyl)picolinic acid] the “GR50 VIOSS” value ([1]; Table 8, 21 d) was greater than 140 g ai/ha, the “GR80 VIOSS” value ([1]; Table 8, 21 d) was greater than 140 g ai/ha and the pest or weed control at 35 g/ha [1, 3] was 0 to 29%. It also gave a pest or weed control at 70 g/ha [1, 3] of 0 to 29% and a pest or weed control at 140 g/ha [1, 3] of 30 to 44%.

For `C=Cc1c(C(=O)O)nc(-c2ccc(C(F)(F)F)c(F)c2)c(F)c1N` [Compound 86], the pest or weed control at 35 g/ha [1, 17] was 60 to 74%, the pest or weed control at 70 g/ha [1, 17] was 60 to 74% and the “GR50 VIOSS” value ([1]; 21 days after application) was 21 g ai/ha. For the same compound, the “GR80 VIOSS” value ([1]; 21 days after application) was 77 g ai/ha.

`Nc1cc(-c2cc(F)c(Br)cc2F)nc(C(=O)O)c1Cl` [Compound 3] was tested, and the “GR50 VIOSS” value ([1]; Table 8, 21 d) was 4 g ai/ha, the “GR80 VIOSS” value ([1]; Table 8, 21 d) was 7 g ai/ha and the pest or weed control at 35 g/ha [1, 3] was 95 to 100%. For the same compound, the pest or weed control at 70 g/ha [1, 3] was 95 to 100%.

With `Nc1c(Cl)c(C(=O)O)nc(-c2ccc(Br)c(F)c2)c1Cl` [Compound 43, 4-Amino-6-(4-bromo-3-fluorophenyl)-3,5-dichloropicolinic acid] the “GR50 VIOSS” value ([1]; Table 8, 21 d) was 37 g ai/ha, the “GR80 VIOSS” value ([1]; Table 8, 21 d) was greater than 140 g ai/ha and the pest or weed control at 35 g/ha [1, 3] was 45 to 59%. It also gave a pest or weed control at 70 g/ha [1, 3] of 60 to 74%.

In the case of `Nc1c(F)c(-c2cc(F)c(I)cc2F)nc(C(=O)O)c1Cl` [Compound 69], the pest or weed control at 35 g/ha [1, 17] is reported as 85 to 94%, the pest or weed control at 70 g/ha [1, 17] is reported as 95 to 100% and the “GR50 VIOSS” value ([1]; 21 days after application) is reported as 3 g ai/ha. For the same compound, the “GR80 VIOSS” value ([1]; 21 days after application) was 8 g ai/ha.

`COC(=O)c1nc(-c2ccc(I)c(F)c2)nc(N)c1OC` [Compound 27, Methyl 6-amino-2-(3-fluoro-4-iodophenyl)-5-methoxypyrimidine-4-carboxylate] was tested, and the “GR50 VIOSS” value ([1]; Table 8, 21 d) was 8 g ai/ha, the “GR80 VIOSS” value ([1]; Table 8, 21 d) was 27 g ai/ha and the pest or weed control at 35 g/ha [1, 3] was 75 to 84%. It also gave a pest or weed control at 70 g/ha [1, 3] of 95 to 100%.
